This experiment concerns the target T1, SETD2(1434-1711) (Homo sapiens, UniProt Q9BYW2).
T1 construct: SETD2 (1434-1711) Assay; catalogue N/A
T1 sequence (Q9BYW2 1434-1711): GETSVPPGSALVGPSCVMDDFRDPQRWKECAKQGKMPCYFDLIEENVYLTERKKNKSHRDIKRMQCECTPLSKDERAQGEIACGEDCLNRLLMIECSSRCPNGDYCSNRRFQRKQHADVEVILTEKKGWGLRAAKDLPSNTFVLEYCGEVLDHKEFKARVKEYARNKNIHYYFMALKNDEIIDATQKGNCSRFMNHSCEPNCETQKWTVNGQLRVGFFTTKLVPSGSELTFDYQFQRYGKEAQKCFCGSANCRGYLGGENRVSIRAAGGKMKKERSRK
Put plainly: SETD2 (1434-1711) assay. It is filed as biochemical. As to conditions: read-out: SETD2 (1434-1711).
On to `Cc1cccc2cc(C(=O)NC(c3ccccn3)c3ccccn3)[nH]c12` [compound 637], for which the IC50 worked out at 17.5 µM. In the case of `Cc1cccc2cc(C(=O)N(C)[C@H]3CC[C@H](N)CC3)[nH]c12` [compound 761], the IC50 was more than 200 µM. `Cc1ccc(C)c2[nH]c(C(=O)N[C@H]3CC[C@H](NC(=O)CCN)CC3)cc12` [compound 644]: the IC50 is 19.5 µM. The value for `COC(=O)CC(NC(=O)c1cc2cccc(C)c2[nH]1)c1ccc(C(C)C)cc1` (stereo not shown) [compound 773] was more than 200 µM.

With `CCOC(=O)C(NC(=O)c1cc2cccc(C)c2[nH]1)C(F)(F)F` (stereo not shown) [compound 675], the IC50 is 37.7 µM. On to `CCOC(=O)[C@@H]1CCCC[C@H]1NC(=O)c1cc2cccc(C)c2[nH]1` [compound 797], for which the IC50 was more than 200 µM.

As to `Cc1cccc2cc(C(=O)N3CCN(c4ncccc4C(N)=O)CC3)[nH]c12` [compound 757], the IC50 is more than 200 µM. On to `Cc1cccc2cc(C(=O)NCc3cccc(S(=O)(=O)N4CCCCC4)c3)[nH]c12` [compound 751], for which the IC50 was more than 200 µM. Turning to `Cc1ccccc1C(O)CNC(=O)c1cc2cccc(C)c2[nH]1` (stereo not shown) [compound 686], the IC50 turned out to be 51.3 µM. The value for `COc1cc(OC)cc(C(O)CNC(=O)c2cc3cccc(C)c3[nH]2)c1` (stereo not shown) [compound 681] was 45 µM; that for `Cc1cccc2cc(C(=O)NC3CCCc4ccccc43)[nH]c12` (stereo not shown) [compound 753] was more than 200 µM; that for `Cc1cccc2cc(C(=O)N3CCCC(N(C)C)C3)[nH]c12` (stereo not shown) [compound 799] was more than 200 µM.

With `Cc1cccc2cc(C(=O)N[C@@H]3C[C@@H]4CC[C@H]3CN4C(=O)CCCN)[nH]c12` [compound 657], the IC50 came to 25.7 µM.

Turning to `Cc1nc(CCNC(=O)c2cc3cccc(C)c3[nH]2)no1` [compound 782], the IC50 was more than 200 µM. `Cc1ccc(F)c2cc(C(=O)N[C@@H]3CCC[C@@H](N4CCN(C(=O)C5CC5)CC4)C3)[nH]c12` [compound 831]: the IC50 is 2.3 µM. As for `COC(=O)C[C@H](NC(=O)c1cc2cccc(C)c2[nH]1)c1ccccc1` [compound 690], the IC50 was 55.8 µM. For `COc1cccc(C(O)CNC(=O)c2cc3cccc(C)c3[nH]2)c1` (stereo not shown) [compound 695], the IC50 stood at 62.1 µM.

As for `Cc1cccc2cc(C(=O)NC3C[C@@H]4CC[C@H]3C4)[nH]c12` (stereo partly shown) [compound 654], the IC50 was 25.1 µM. `Cc1ccc(F)c2cc(C(=O)N[C@@H]3CCCC(N4CCC(=O)N(C)CC4)C3)[nH]c12` (stereo partly shown) [compound 832]: the IC50 worked out at 0.6 µM.

Take `Cc1cccc2cc(C(=O)NCc3ccc(CN4CCOCC4)cc3)[nH]c12` [compound 755]: the IC50 is more than 200 µM. `Cc1cc(CNC(=O)c2cc3cccc(C)c3[nH]2)no1` [compound 719]: the IC50 turned out to be 107 µM.

For the compound `Cc1nonc1CNC(=O)c1cc2cccc(C)c2[nH]1` [compound 732], the IC50 is 137 µM. Consider `Cc1cccc2cc(C(=O)NCC(O)C3CC3)[nH]c12` (stereo not shown) [compound 731], for which the IC50 is 137 µM. For the compound `Cc1cccc2cc(C(=O)N[C@H](CO)c3ccccc3)[nH]c12` [compound 703], the IC50 came to 70.7 µM. As to `COC(=O)CC(NC(=O)c1cc2cccc(C)c2[nH]1)c1ccc(F)cc1` (stereo not shown) [compound 776], the IC50 is more than 200 µM. On to `COC(=O)C[C@H](NC(=O)c1cc2cccc(C)c2[nH]1)c1cccnc1` [compound 676], for which the IC50 amounted to 38.1 µM. Consider `CCc1c(C(=O)N[C@H]2CC[C@H](NC(=O)CCN)CC2)[nH]c2c(C)cccc12` [compound 711], for which the IC50 worked out at 85.9 µM. Regarding `Cc1cccc2cc(C(=O)N3CCC(C(N)=O)CC3)[nH]c12` [compound 771], the IC50 is more than 200 µM. The value for `COC(=O)C[C@H](NC(=O)c1cc2cccc(C)c2[nH]1)c1ccc(Cl)cc1` [compound 683] was 48.2 µM. Consider `Cc1nc(C(C)NC(=O)c2cc3cccc(C)c3[nH]2)no1` (stereo not shown) [compound 785], for which the IC50 is more than 200 µM. As to `COC(=O)C[C@@H](NC(=O)c1cc2cccc(C)c2[nH]1)c1ccccc1` [compound 666], the IC50 is more than 33 µM.

The record behind these values is US12116358B2, “Substituted indoles and methods of use thereof” (EPIZYME, INC., priority 2018, dated 2024).
